Columns and labels:
Format in all cases: in vivo
[1] = tested on: C57BL/6J mice with colitis induced by TNBS; test: TNBS-induced experimental colitis in mice (animal weight, colon inflammation); conditions: for effect on animal weight (weight loss induced by TNBS): FIG. 1
Description: The PAT nonapeptide was studied in animal model of experimental colitis. In mice, one of the clearly established IBD colitis models is the one in which the induction is performed by the use of trinitrobenzene sulphonic acid (TNBS). TNBS is a hapten which, when it is administered by intrarectal route, induced a severe colonic transmural inflammation; the induced effects present many similarities with those induced by Crohn's disease (Elson C O et al Experimental models of inflammatory bowel disease. Gastroenterology 2003; 10: 1344-67; Strober W et al., The immunology of mucosal models of inflammation. Annu Rev Immunol 2002; 20: 495-49).
(§1) Colitis is induced in C57BL/6J mice of 7-8 weeks old after TNBS administration per rectal route according to the protocol described by Sugimoto K. et al (Gastroenterology 2002: 123; 1912-1922). The administration is performed directly in the lumen of the colon (over a 3-4 cm length) by using a 1 ml-syringe and a polyethylene cannula (Intradermic PE-20, Becton Dickinson) of a 100 μl solution containing 2.5 mg of TNBS dissolved beforehand in 50 μl of ethanol. After the administration, the mice are maintained 30 seconds in vertical position.
The design of the study is the following: • one control batch of 5 mice treated by ethanol/PBS mixture (vol/vol): • one test batch of 10 mice to which TNBS is administered (2.5 mg in 50% ethanol); • one test batch of 10 mice to which TNBS and nonapeptide are administered with the amount of 1 μg/mouse; • one test batch of 10 mice to which TNBS and nonapeptide are administered with the amount of 5, μg/mouse; • one batch of 10 mice to which TNBS and nonapeptide are administered with the amount of 25 μg/mouse.
The PAT nonapeptide is administered by intraperitoneal route 30 minutes before the TNBS induction of colitis. Several mice (5 of each test batch; 2 of control batch) are sacrificed at day 1 after TNBS induction. The remaining mice (5 of each test batch; 3 of control batch) are sacrificed at day 3 after TNBS induction.
The animals are weighed every day until the sacrifice.
As soon as the animals are sacrificed, the colon is sampled and a macroscopic analysis is carried out.

IL-1β = test: Expression of IL-1β in colon by quantitative RT-PCR, TNBS colitis mice; conditions: 25 μg of PAT; TNBS alone increases almost 50 fold; FIG. 3
Description: as §1, with “position. […]” for “position.”
(§2) The latter is carried out by denaturation with guanidine thiocyanate; cDNA synthesis is made starting from 1 ng of RNA using a kit (Euromedex). A quantitative PCR is carried out; the reaction is performed in a 25 μl final volume by using SYBR kit (Eurogentec). Stimulation rate is determined for each cytokine compared to reference cDNA which is that corresponding to […] ribosomal phosphoprotein.

IL-6 = test: Expression of IL-6 in colon by quantitative RT-PCR, TNBS colitis mice; conditions: 25 μg of PAT per mouse; TNBS alone increases around 30 fold; FIG. 3
Description: as §1, with “position. […]” for “position.”
as §2

TNF-α = test: Expression of TNF-α in colon by quantitative RT-PCR, TNBS colitis mice; conditions: PAT 25 μg/mouse; TNBS alone increases around 4 fold; FIG. 3
Description: as §1, with “position. […]” for “position.”
as §2

IL-10 = test: Expression of IL-10 in colon by quantitative RT-PCR, TNBS colitis mice; conditions: PAT 25 μg/mouse before TNBS; not increased with TNBS alone; FIG. 3
Description: as §1, with “position. […]” for “position.”
as §2

[2] = tested on: arthritic rats of OFA (SD) strain; test: Arthritis induced by Freund's adjuvant (Mycobacterium butyricum) in the rat; conditions: for volume of the leg: 5 times per week during 3 weeks, from Day 14 until Day 21, FIG. 4; for hypersensitivity measured by the plantar test: Day 16, equivalent to non-arthritic reference group, FIG. 6; for erythrocyte sedimentation rate (ESR): FIG. 7; for macroscopic clinical score: FIG. 5
Description: We used the model of arthritis induced by Freund' adjuvant as described in the article of Milan et al., J Neurosci 1986; 6: 899-906. The rats are administered with Mycobacterium butyricum develop usually a severe polyarthritis which resembles to that in human. Rats of OFA (SD) strain (Oncins France Strain A) weighing approximately 200 g received an […] of a 10 mg/ml Mycobacterium butyricum solution at the articulation of the right ankle. For all the measured parameters, the rats were divided into 5 groups (8 rats/group) in the following way: • reference group: the rats received a paraffin injection instead of the solution of Mycobacterium butyricum (no induced arthritis) then receive an intraperitoneal injection of saline solution; • arthritic group+injection of saline solution; • arthritic group+intraperitoneal injection of 3 mg/kg indomethacin; the indomethacin being a NSAID classically used as reference in this kind of test; • arthritic group+intraperitoneal injection of 0.4 […]; […] The products are administered 5 times per week during 3 weeks. At the beginning of the experimentation (day 0), one determines the initial values for the different parameters (volume of the leg, macroscopic clinical score, sedimentation test and hypersensitivity). During the experiment, several parameters are measured: • the volume of the leg (“paw latency duration”); • the globular sedimentation test (“Erythrocyte Sedimentation rate”); • the macroscopic score: • “0” means that no sign of arthritis was detected; • “1” means that a swelling or an inflammation was detected on a leg; • “2” means that a swelling or an inflammation was detected on two legs; • “3” means that a swelling or an inflammation was detected on at lest 3 legs; • “4” means that a swelling or an inflammation was detected on the 4 legs. • hypersensitivity according to the plantar test: carried out according to Yukinori Nagakura and al, Allodynia and hyperalgesia in adjuvant-induced arthritic rats: time course of progression and efficacy of analgesics, JPET 306: 490-497, 2003, or in Andersen M L and al “Evaluation of acute and chronic treatments with Harpagophytum procumbens one Freund's adjuvant-induced arthritis in rats”. J. Ethnopharmacol. 2004 April; 91 (2-3): 325-30; • the erythrocyte sedimentation rate (ESR): the increase in this one generally accompanies the clinical symptoms met in induced arthritis. The ESR is measured in the arthritic rats (at Day 21) 1 hour and 2 hours after the injection of PAT or indomethacin, according to the protocol of Mahajan S G, et al., Protective Effect of Ethanolic Extract of Seeds of Moringa will oleifera Lam. Against Inflammation Associated with Development of Arthritis in Rats. J. Immunotoxicol. 2007 January; 4 (1): 39-47.

For “H EAKSQGGSD-NH2 (H-EAKSQGGSD-NH2) [PAT nonapeptide]”, which “effect on animal weight (weight loss induced by TNBS)” value ([1]; PAT 1 μg/mouse i.p. 30 minutes before TNBS) is on record?
The value was “do not show a significant effect”.

And the “effect on animal weight (weight loss induced by TNBS)” value ([1]; PAT 5 μg/mouse i.p. 30 minutes before TNBS)?
The value was “do not show a significant effect”.

And the “effect on animal weight (weight loss induced by TNBS)” value ([1]; PAT 25 μg/mouse i.p. 30 minutes before TNBS)?
Its value is “allows to limit this weight loss”.

And the “colon length, on average” value ([1]; TNBS-PAT treated mice, control mice 7 cm, TNBS-treated mice 5 cm)?
Its value is 6.5 cm.

What about the “colon inflammation caused by TNBS rectal injection (macroscopic analysis)” value ([1]; i.p. 30 minutes before TNBS, dose dependant, maximal effect at 25 μg/mouse, FIG. 2) of the same compound?
Its value is “reduce to a significant extent inflammation”.

What about the IL-1β cytokine expression (IL-1β) of the same compound?
Its IL-1β cytokine expression is “decreases to a significant extent”.

And the IL-6 expression (IL-6)?
The IL-6 expression was “decreases to a significant extent”.

What about the TNF-α expression (TNF-α) of the same compound?
Its TNF-α expression is “the increase is notably reduced”.

And the “increase of IL-10 anti-inflammatory cytokine level” value (IL-10)?
Its value is “more than 3 fold”.

What about the progression of arthritis ([2]; PAT 0.4 μg/kg (i.p), leg, peripheral hypersensitivity and ESR) of the same compound?
The progression of arthritis was “reduce very significantly the progression of arthritis”.

What about the “efficacy compared with indomethacin 3 mg/kg” value ([2]; PAT 0.4 μg/kg (i.p.), a dose 7500 fold lower than indomethacin) of the same compound?
Its value is “at least a similar efficacy”.

What about the “volume of the leg” value ([2]; PAT 0.4 μg/kg i.p.) of the same compound?
The value was “notable reduction of inflammation and of the volume of the leg”.

And the “hypersensitivity measured by the plantar test” value (“hypersensitivity measured” for short) ([2]; PAT 0.4 μg/kg i.p.)?
Its value is “hypersensitivity is very reduced”.

What about the “erythrocyte sedimentation rate (ESR)” value ([2]; PAT 0.4 μg/kg i.p., Day 21, 1 hour after the injection, compared to indomethacin group, very similar to reference rats) of the same compound?
Its value is “more reduced ESR”.

What about the macroscopic clinical score ([2]; PAT 0.4 μg/kg i.p., compared to arthritic rats given saline solution) of the same compound?
The macroscopic clinical score was “significant reduction in the macroscopic score”.

What about the “volume of the leg” value ([2]; PAT 4 μg/kg i.p.) of the same compound?
Its value is “notable reduction of inflammation and of the volume of the leg”.

What about the “hypersensitivity measured” value ([2]; PAT 4 μg/kg i.p.) of the same compound?
Its value is “hypersensitivity is very reduced”.

And the “erythrocyte sedimentation rate (ESR)” value ([2]; PAT 4 μg/kg i.p., Day 21)?
The value was “did not have a significant effect on the reduction of ESR”.

And the macroscopic clinical score ([2]; PAT 4 μg/kg i.p., compared with 0.4 μg/kg)?
Its macroscopic clinical score is “shows less effects”.

For `COc1ccc2c(c1)c(CC(=O)O)c(C)n2C(=O)c1ccc(Cl)cc1` [indomethacin, reference compound], which “volume of the leg” value ([2]; indomethacin 3 mg/kg i.p.) is on record?
Its value is “notable reduction of inflammation and of the volume of the leg”.

What about the “hypersensitivity measured” value ([2]; indomethacin 3 mg/kg i.p.) of the same compound?
The value was “hypersensitivity is very reduced”.

And the “erythrocyte sedimentation rate (ESR)” value ([2]; indomethacin 3 mg/kg i.p., Day 21)?
Its value is “reduced in a very important way”.

What about the macroscopic clinical score ([2]; indomethacin 3 mg/kg i.p., compared to arthritic rats given saline solution) of the same compound?
Its macroscopic clinical score is “significant reduction in the macroscopic score”.

Reference: patent US9427455B2, “Use of the pat nanopeptide in the treatment of autoimmune diseases” (CLL PHARMA, priority 2008, dated 2016)
